Values quoted from earlier work in article PMC9347208, “Pharmacological activation of the hERG K^+ channel for the management of the long QT syndrome: A review” (Journal of Arrhythmia, 2022).
“Also recorded” adds a separate entry of the source. Like-named read-outs stand apart in the source and are kept apart here.

Legend:
[1] = test system: ICa,L; conditions: recorded from guinea pig cardiomyocytes
[2] = test system: IK1
[3] = test system: INa
[4] = test system: IKs; parameters: method as in PMID 15976038, PMID 29050968, PMID 19892732, PMID 31877041, PMID 23840331; conditions: recorded from isolated guinea pig cardiomyocytes; ref [22], [41], [52], [53], [59], [60]
[5] = test system: hERG channel mutants; parameters: method as in column Ref. of the table row; conditions: mutation named in the value
[6] = test system: SQT1 model; parameters: method as in column Ref. of the table row; conditions: by creating the substrate for reentry
[7] = test system: APD, EADs, and QT prolongation; parameters: method as in PMID 15976038, PMID 29050968, PMID 19892732, PMID 31877041, PMID 23840331; conditions: 3 μM; caused by high‐affinity inhibitor dofetilide; ref [22], [41], [52], [53], [59], [60]
[8] = test system: E637K hERG mutant; parameters: method as in PMID 15976038, PMID 29050968, PMID 19892732, PMID 31877041, PMID 23840331; conditions: ref [22], [41], [52], [53], [59], [60]
[9] = test system: perfused canine atrial preparations; parameters: method as in PMID 15976038, PMID 29050968, PMID 19892732, PMID 31877041, PMID 23840331; conditions: ERP abbreviation and TDR amplification, ref [22], [41], [52], [53], [59], [60]
[10] = test system: hERG channel; conditions: for Type: type of hERG activator by main mechanism of action, ref [40]
[11] = test system: ventricular repolarisation (APD, QT interval)
[12] = test system: hNav1.5 (INa)
[13] = test system: hKCNQ1‐KCNE1 (IKs)
[14] = test system: ICa,L; parameters: method as in PMID 29050968, PMID 18042732; conditions: ventricular cardiomyocytes isolated from rabbit hearts; ref [41], [83]
[15] = test system: Ito; parameters: method as in PMID 29050968, PMID 18042732; conditions: ventricular cardiomyocytes isolated from rabbit hearts; ref [41], [83]
[16] = test system: hERG channel
[17] = test system: Kv1.5 (IKur); conditions: 50 μM; ref [19], [21]
[18] = test system: hERG channel; conditions: astemizole, sertindole, dofetilide, and cisapride, radioligand assays, ref [19] and column References of the table row
[19] = test system: Dofetilide‐induced arrhythmias; conditions: after pretreatment; ref [19], [21]
[20] = test system: hCav1.2 (ICa,L); parameters: method as in column Ref. of the table row
[21] = test system: hKir2.1 (IK1); conditions: ref [19], [29]
[22] = test system: hKv4.3 (Ito); conditions: ref [19], [29]
[23] = test system: IKr; conditions: native human cardiomyocytes from LQT1 patients; ref [19], [29]
[24] = test system: hERG1a and hERG1b; parameters: method as in column Ref. of the table row
[25] = test system: neuronal Kv12.1 ether‐à‐ go‐go‐gene‐like (elk3) channel; parameters: method as in PMID 24041920, PMID 25809254, PMID 18452879, PMID 29050968, PMID 25191697; conditions: ref [16], [27], [32], [41], [48], [58], [61], [70], [84]
[26] = test system: guinea pig hearts; conditions: Langendorff‐perfused Guinea pig hearts, high concentrations; ref [16], [27], [32], [41], [48], [58], [61], [70], [84]
[27] = recorded from isolated guinea pig cardiomyocytes, ref [22], [41], [52], [53], [59], [60]
[28] = suggested, as no change to AP amplitude and diastolic potential of guinea pig cardiomyocytes

SMILES: O=C(O)c1ccccc1Nc1ccc(CCc2ccc(Cl)c(Cl)c2)cc1 [PD‐118057]
- Channel selectivity: effect on cardiac ICa,L [1]: No effect on INa, ICa‐L, IK1, and IKs recorded from isolated guinea pig cardiomyocytes.
- Channel selectivity: effect on IK1 [2, 27]: No effect on INa, ICa‐L, IK1, and IKs recorded from isolated guinea pig cardiomyocytes.
- Channel selectivity: effect on INa [3, 27]: No effect on INa, ICa‐L, IK1, and IKs recorded from isolated guinea pig cardiomyocytes.
- Channel selectivity: effect on IKs [4]: No effect on INa, ICa‐L, IK1, and IKs recorded from isolated guinea pig cardiomyocytes.
- Molecular determinants of activity: effect of hERG mutations on agonist activity [5]: Mutation to F619 and L646 suppresses agonist activity; also recorded: Mutation to C643 and M645 enhances drug activity
- Reported associated pro‐arrhythmic risk: SQT1 manifestations [6]: Recapitulates the electrophysiological and arrhythmic manifestations of SQT1
- Reported benefit for LQTS: diLQTS [7]: prevents APD, EADs, and QT prolongation
- Reported benefit for LQTS: cLQTS, rescue of E637K hERG mutant [8]: Failed to rescue
- Reported associated pro‐arrhythmic risk: arrhythmia provocations [9]: Increases arrhythmia provocations
- Type [10]: 4
- Effect on PRRP and QT interval ([11]; ref [21], [60], [61]): increase the PRRP and shorten the QT interval but potentially to the point of triggering arrhythmia

SMILES: O=C(O)c1cccnc1Nc1ccc2c(c1)CN(c1ccc(Cl)c(Cl)c1)C2 [PD‐307243]
- Channel selectivity: effect on recombinant hNav1.5 (INa) [12]: No effect
- Channel selectivity: effect on recombinant hKCNQ1‐KCNE1 (IKs) [13]: No effect
- Channel selectivity: effect on ICa,L [14]: Activates
- Channel selectivity: effect on Ito [15]: no effect
- Reported benefit for LQT: activator effect in presence of BeKm‐1 ([16]; ref [41], [83]): potentiated
- Reported benefit for LQT: diLQTS, interaction with dofetilide ([16]; ref [41], [83]): Dofetilide prevents the activator effect of PD and unmasks its current suppressing effect

SMILES: O=C(COc1ccc2ccccc2c1Br)Nc1cccnc1 [VU0405601]
- Channel selectivity: effect on recombinant Nav1.5 (INa) ([12]; 50 μM, ref [19], [21]): No or small effect of 50 μM on recombinant cardiac Kv1.5 (IKur), Nav1.5 (INa), and KCNQ1 + KCNE1 (IKs) channels.
- Channel selectivity: effect on recombinant KCNQ1 + KCNE1 (IKs) ([13]; 50 μM, ref [19], [21]): No or small effect of 50 μM on recombinant cardiac Kv1.5 (IKur), Nav1.5 (INa), and KCNQ1 + KCNE1 (IKs) channels.
- Channel selectivity: effect on recombinant cardiac Kv1.5 (IKur) [17]: No or small effect of 50 μM on recombinant cardiac Kv1.5 (IKur), Nav1.5 (INa), and KCNQ1 + KCNE1 (IKs) channels.
- Allosteric effect on the binding of hERG blockers [18]: negative allosteric modulators; also recorded: weaken interactions
- Reported benefit for LQT: diLQTS, dofetilide‐induced arrhythmias [19]: reduced

SMILES: O=C(COc1ccc(C(=O)c2ccccc2)cc1)Nc1cccnc1 [ML‐T531]
- Channel selectivity: effect on recombinant hNav1.5 (INa) [12]: No effect
- Channel selectivity: effect on hKCNQ1‐KCNE1 channels (IKs) ([13]; 10 μM, ref [19], [29]): minor suppressive effect
- Channel selectivity: effect on recombinant hCav1.2 (ICa,L) [20]: No effect
- Channel selectivity: effect on recombinant hKir2.1 (IK1) [21]: No effect
- Channel selectivity: effect on recombinant hKv4.3 (Ito) [22]: No effect
- Allosteric effect on the binding of hERG blockers [18]: Negative effect on the binding
- Allosteric effect on the binding of hERG blockers ([18]; listed as MLT‐531): negative allosteric modulators
- Reported benefit for LQT: cLQTS, IKr [23]: IKr increase

SMILES: O=C(Nc1cc(C(F)(F)F)ccc1O)Nc1cc(C(F)(F)F)ccc1O [NS1643, 1,3‐bis‐(2‐hydroxy‐5‐trifluoromethyl‐phenyl)‐urea]
- Effect against Nav1.5 channels ([12]; ref [32]): inhibitory effects
- Channel selectivity: sensitivity of hERG1a versus hERG1b [24]: Differential sensitivity
- Channel selectivity: effect on cardiac IK1 [2, 28]: Suggested absence
- Channel selectivity: effect on cardiac INa [3, 28]: Suggested absence
- Channel selectivity: effect on neuronal Kv12.1 (elk3) channel [25]: Inhibitor
- Reported associated pro‐arrhythmic risk: ventricular tachycardia and fibrillation [26]: Induces ventricular tachycardia and ventricular fibrillation
- Reported benefit for LQT: diLQTS, effects of hERG inhibition by drug inhibitors ([16]; 10 μM, inhibitors e.g. E‐4031, dofetilide, moxifloxacin, ref [16], [27], [32], [41], [48], [58], [61], [70], [84]): attenuate electrophysiological effects associated with hERG inhibition by various drug inhibitors; also recorded: did not reverse the inhibition to the control levels
- Potency in reducing hERG channel inactivation ([10]; ref [16], [31]): modest potency compared with ICA‐105574
- Type [10]: 1, 2, and possibly 3
- Efficacy against triggered activity ([11]; low concentration, in vitro and ex vivo experimental models, ref [32]): effective against triggered activity
- TDR and instability of the QT interval ([11]; only in the presence of an I Ks inhibitor, ref [16]): markedly amplify
